Reference: patent US6642392B1 (priority 1997, dated 2003)

How the values were obtained:
Format in all cases: in vivo
Puccinia recondita = assay: Test B: wheat leaf rust, preventive spray on wheat seedlings; details: wheat seedlings sprayed to run-off, inoculated the following day; rating relative to controls; unmarked compounds (standard test rate)
Outline: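 Wheat seedlings were sprayed to run-off with compound (3% acetone, 250 ppm Trem 014), then inoculated with P. recondita spores the next day. They were held 24 h saturated at 20 °C, then 6 days at 20 °C. Ratings are 0–100% disease control versus controls.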

[1] = tested on: Eiysiphe graminis f. sp. tritici; assay: Test A: wheat powdery mildew, preventive spray on wheat seedlings; details: wheat seedlings sprayed to run-off, inoculated the following day; rating relative to controls; unmarked compounds (standard test rate)
Outline: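 Compounds (3% acetone, 250 ppm Trem 014) sprayed to run-off on wheat seedlings, inoculated next day with spore dust. Incubated 7 days at 20° C before disease rating, 0–100% control relative to untreated controls.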

Pyricularia oryzae = details: rice seedlings sprayed to run-off, inoculated the following day; rating relative to controls; unmarked compounds (standard test rate)
Botrytis cinerea = assay: Test E: gray mold, preventive spray on cucumber seedlings; details: cucumber seedlings sprayed to run-off, inoculated the following day; rating relative to controls; unmarked compounds (standard test rate)
Outline: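 Compounds in 3% acetone were suspended with 250 ppm Trem 014 surfactant and sprayed to run-off on cucumber seedlings. B. cinerea spores were inoculated next day, then 48 h saturated humidity at 20° C and 5 days at 20° C. Disease control rated 0–100% versus controls.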

Phytophthora infestans = details: tomato seedlings sprayed to run-off, inoculated the following day; rating relative to controls; unmarked compounds (standard test rate)

| Compound | Test B disease control rating (100 = 100% disease control, 0 = no disease control) (Puccinia recondita) [%] | Test A disease control rating (100 = 100% disease control, 0 = no disease control) [1] [%] | Test C disease control rating (100 = 100% disease control, 0 = no disease control) (Pyricularia oryzae) [%] | Test E disease control rating (100 = 100% disease control, 0 = no disease control) (Botrytis cinerea) [%] | Test D disease control rating (100 = 100% disease control, 0 = no disease control) (Phytophthora infestans) [%] |
| --- | --- | --- | --- | --- | --- |
| CCC1(C(=O)NC(C)COc2ccc(Cl)c(Cl)c2)C(C)C1(Cl)Cl (stereo not drawn) [compound 230] | 0 | 0 | 53 | 45 | 0 |
| CCC1(C(=O)NC(C)COc2ccc(Cl)c(F)c2)C(C)C1(Cl)Cl (stereo not drawn) [compound 231] | 0 | 0 | 97 | 93 | 0 |
| CCC1(C(=O)NC(C)COc2ccc(F)c(Cl)c2)C(C)C1(Cl)Cl (stereo not drawn) [compound 232] | 0 | 62 | 100 | 69 | 35 |
| CCC1(C(=O)NC(C)COc2c(F)ccc(F)c2F)C(C)C1(Cl)Cl (stereo not drawn) [compound 233] | 0 | 62 | 94 | 6 | 9 |
| CCC1(C(=O)NC(C)COc2cc(F)cc(F)c2)C(C)C1(Cl)Cl (stereo not drawn) [compound 234] | 0 | 0 | 100 | 0 | 0 |
| CCC1(C(=O)NC(C)COc2cc(F)c(F)cc2F)C(C)C1(Cl)Cl (stereo not drawn) [compound 236] | 0 | 77 | 97 | 0 | 0 |
| CCC1(C(=O)NC(C)COc2c(F)cc(F)cc2F)C(C)C1(Cl)Cl (stereo not drawn) [compound 237] | 0 | 62 | 53 | 0 | 9 |
| CCC1(C(=O)NC(C)COc2cc(Cl)ccc2C#N)C(C)C1(Cl)Cl (stereo not drawn) [compound 239] | 0 | 0 | 97 | 0 | 88 |
| CCc1cccc(OCC(C)NC(=O)C2(CC)C(C)C2(Cl)Cl)c1 (stereo not drawn) [compound 240] | 0 | 63 | 94 | 0 | 96 |
| CCC1(C(=O)NC(C)COc2ccc(C(C)(C)C)cc2)C(C)C1(Cl)Cl (stereo not drawn) [compound 241] | 0 | 38 | 74 | 0 | 74 |
| CCC1(C(=O)NC(C)COc2cc(Cl)c(Cl)cc2Cl)C(C)C1(Cl)Cl (stereo not drawn) [compound 242] | 0 | 0 | 74 | 0 | 96 |
| CCC1(C(=O)NC(C)COc2ccc(Cl)c(Cl)c2Cl)C(C)C1(Cl)Cl (stereo not drawn) [compound 243] | 0 | 38 | 74 | 0 | 74 |
| CCC1(C(=O)NC(C)COc2cc(F)ccc2C#N)C(C)C1(Cl)Cl (stereo not drawn) [compound 245] | 0 | 72 | 100 | 0 | 0 |
| CCC1(C(=O)NC(C)COc2cc(Br)ccc2C#N)C(C)C1(Cl)Cl (stereo not drawn) [compound 246] | 0 | 53 | 97 | 0 | 0 |
| CCC1(C(=O)NC(C)COc2cc(I)ccc2C#N)C(C)C1(Cl)Cl (stereo not drawn) [compound 247] | 0 | 53 | 85 | 0 | 0 |
| CCC1(C(=O)NC(C)COc2cc(C(C)(C)C)ccc2C#N)C(C)C1(Cl)Cl (stereo not drawn) [compound 248] | 0 | 53 | 90 | 83 | 62 |
| CCC1(C(=O)NC(C)COc2c(F)c(F)cc(F)c2F)C(C)C1(Cl)Cl (stereo not drawn) [compound 249] | 0 | 0 | 94 | 0 | 0 |
| CCC1(C(=O)NC(C)COc2c(Br)cc(F)cc2Br)C(C)C1(Cl)Cl (stereo not drawn) [compound 250] | 0 | 0 | 52 | 85 | 0 |
| CCC1(C(=O)NC(C)COc2c(Cl)cc(F)cc2Cl)C(C)C1(Cl)Cl (stereo not drawn) [compound 251] | 0 | 0 | 94 | 0 | 0 |
| CCC(=CCNC(=O)C1(CC)C(C)C1(Cl)Cl)c1cc(Cl)ccc1Cl (stereo not drawn) [compound 262] | 0 | 98 | 53 | 0 | 99 |
| CCC1(C(=O)NCC=Cc2cccc(F)c2)C(C)C1(Cl)Cl (stereo not drawn) [compound 264] | 0 | 0 | 90 | 94 | 54 |
| CCC1(C(=O)NCC(C)=Cc2ccccc2)C(C)C1(Cl)Cl (stereo not drawn) [compound 265] | 0 | 77 | 91 | 0 | 96 |
| CCC1(C(=O)NC(C)C=Cc2ccc(Cl)cc2Cl)C(C)C1(Cl)Cl (stereo not drawn) [compound 266] | 0 | 63 | 91 | 0 | 74 |
| CCC1(C(=O)NCC=C(C)c2ccccc2)C(C)C1(Cl)Cl (stereo not drawn) [compound 268] | 0 | 38 | 91 | 0 | 88 |
